One assay has as its target T1, H^+ /K^+ ATPase (Oryctolagus cuniculus, UniProt P27112).
T1 construct: from tissue; host or cells: rabbit gastric mucosa, membrane vesicles (differential and Ficoll density gradient centrifugation)
As to the kind of experiment: Inhibition of H^+ /K^+ ATPase (vesicles from gastric mucose membrane of rabbit). It is filed as biochemical. Particulars: pH 7.4, 37° C., 30 minutes preincubation, 15 minutes incubation; read-out: Enzyme Inhibition (IC50). How it is done: Inhibition of H^+ /K^+ ATPase, a proton carrying enzyme, was measured by following the procedure of Saccomani et al. [Biochim. Biophy. Acta., 465, 311-330 (1977)]. Thus, a homogenate of the gastric mucose membrane of rabbit was used to prepare vesicles containing H^+ /K^+ ATPase by employing differential centrifugation and discontinuous density gradient centrifugation in Ficoll. The vesicles containing the enzyme were preincubated in a solution (0.5 ml) containing 1×10^-4 M, 1×10^-5 M, 1×10^-6 M, or 1×10^-7 M of the inventive compound (Example 21) and 5 mM of imidazole buffer (pH 7.4) at a temperature of about 37° C. for about 30 minutes. omeprazole was used as a control. A solution containing 2 mM of magnesium chloride, 40 mM of imidazole buffer (pH 7.4), 10 mM of potassium chloride and 10 mM of ATP was added to the mixture. The resulting mixture was incubated at 37° C. for 15 minutes and the reaction was terminated by adding 1 ml of ice-cold 22% solution of trichloroacetic acid. Enzyme activity was calculated by measuring the separated inorganic phosphate by following the method of Fiske and Subbarow [J. Biol. Chem., 66, 375-440 (1925)].

In the next assay the test system is Gastric Secretion. Put plainly: Inhibition of gastric secretion (Shay pylorus ligation). It is filed as in vivo, male Sprague-Dawley rats. The note with it: rat, intraduodenal. Here is the method: Inhibition of gastric secretion was measured by following the procedure of Shay ligation (Gastroenterology, 1954, 26, 903). Thus, male Sprague-Dawleyrats weighing 180-200 g were starved for 24 hours and their pylorus were ligated. Then, the inventive compounds (Examples 1, 13 and 17) or omeprazole as a positive control was administered into duodenum. Four hours later, the stomach was removed, and the acidity and amount of gastric juice were measured. By comparing the measured values with the acidity and amount of the gastric juice of the stomach of the reference group to which no test compound was administered, the inhibition of gastric secretion was calculated.

The next assay deals with Ethanol-Induced Lesions. As to the kind of experiment: Inhibition of Ethanol-Induced Lesions. It is filed as in vivo, male Sprague-Dawley rats. Particulars: rat, oral, 30 minutes before absolute ethanol (5 ml/kg); read-out: Anti-ulcer activity (ED50), Ethanol. How it is done:
Inhibition activity of the inventive compound on the ethanol-induced ulcer was measured by using male sprague-Dawley rats weighing 180-200 g. Thus, rats were starved for 24 hours, and the inventive compound (Examples 1 and 17) or omeprazole as a positive control was orally administered. Thirty minutes later, absolute ethanol (5 ml/kg was orally administered. 1.5 hours later, the stomach was removed, and the degree of the wound of the stomach was measured. By comparing the measured values with the degree of the lesion of the stomach the reference group to which no test compound was administered, the effective dose (ED50) of the test compounds which inhibit the lesion by 50% were calculated and are shown in Table 3.

The test system of assay [1] is Acetic Acid-Induced Ulcer. As to the kind of experiment: Inhibition of Acetic Acid-Induced Ulcer (healing). It is filed as in vivo, male Sprague-Dawley rats. The note with it: rat, oral, 30 mg/kg, for 10 days. How it is done:
Inhibition activity of the inventive compound on-the acetic acid-induced ulcer was evaluated by using male Sprague-Dawley rats. Thus, rats were starved for 5 hours prior to carrying out the experiment.
20 Microliter of 30% acetic acid was injected into the submucosal layer of the stomach using a microsyringe to induce a circular ulcer on the stomach. Various doses of the inventive compounds (Examples 1 and 17) or omeprazole as a positive control were orally administered for 10 days, and the healing of ulcer by the action of the test compounds were observed. The percentages of the healing of the ulcer were calculated by comparing them with that of reference group.

Assay [2] deals with Indomethacin-Induced Lesions. As to the kind of experiment: Inhibition of Indomethacin-Induced Lesions. It is filed as in vivo, male Sprague-Dawley rats. The note with it: rat, oral, before 35 mg/kg indomethacin s.c.; read-out: Anti-ulcer activity (ED50), Indomethacin. How it is done: Inhibition activities of the inventive compounds on the indome][…]-induced lesions was measured by using male Sprague-Dawley rats. Thus, rats were starved for 48 hours and prohibited from being supplied with water for 2 hours, and 35 mg/kg of indomethacin (Sigma Co.) as a causative of gastric lesions was subcutaneously administered. Before Indomethacine treatment, the inventive compounds (Examples 1 and 17) or omeprazole as a positive control was orally administered, and the inhibitions of lesions by the action of the test compounds were observed.

Another assay concerns Stress-Induced Ulcer. As to the kind of experiment: Inhibition of Stress-Induced Ulcer (water immersion). It is filed as in vivo, male Sprague-Dawley rats. Particulars: rat, oral, 30 minutes prior to immersion in water; read-out: Anti-ulcer activity (ED50), Stress. How it is done: Inhibition activity of the inventive compound on the stress-induced ulcer was evaluated by using male Sprague-Dawley rats. Thus, rats were starved for 24 hours prior to carrying out the experiment. Stress is an important factor for causing gastric lesions, and was applied to rats by immersing them in water. Thirty minutes prior to immersing rats into water, the inventive compounds (Examples 1 and 17) or omeprazole as a positive control was orally administered, and the inhibitions of ulcer by the action of the test compounds were observed.

A further assay has as its system Mepirizole-Induced Ulcer. Put plainly: Inhibition of Mepirizole-Induced Ulcer (duodenum). It is filed as in vivo, male Sprague-Dawley rats. Particulars: rat, oral, 30 minutes before mepirizole (250 mg/kg); read-out: Anti-ulcer activity (ED50), Mepirizole. Here is the method:
Inhibition activity of the inventive compounds on the mepirizole-induced ulcers was measured by using male Spraque-Dawley rats weighing 200-230 g. Thus, rats were not starved, and the inventive compounds (Examples 1 and 17) or omeprazole as a positive control was orally administered. Thirty minutes later, mepirizole suspended in 1% CMC (250 mg/kg) was orally administered. […], the duodena were removed. The degree of the ulcer thereof was measured. By comparing the measured values with the degree of the ulcer of the duodena of the reference group to which no test compound was administered, the effective deses (ED50) of the test compounds which inhibit the ulcer by 50% were calculated and are shown in Table 3.

Data on five compounds can be found in US6043373A, “Heterocycle-fused thiazole derivatives” (Yungjin Pharmaceutical Co., Ltd., priority 1995, dated 2000).

T1 sequence (P27112 2-1035 limits assumed): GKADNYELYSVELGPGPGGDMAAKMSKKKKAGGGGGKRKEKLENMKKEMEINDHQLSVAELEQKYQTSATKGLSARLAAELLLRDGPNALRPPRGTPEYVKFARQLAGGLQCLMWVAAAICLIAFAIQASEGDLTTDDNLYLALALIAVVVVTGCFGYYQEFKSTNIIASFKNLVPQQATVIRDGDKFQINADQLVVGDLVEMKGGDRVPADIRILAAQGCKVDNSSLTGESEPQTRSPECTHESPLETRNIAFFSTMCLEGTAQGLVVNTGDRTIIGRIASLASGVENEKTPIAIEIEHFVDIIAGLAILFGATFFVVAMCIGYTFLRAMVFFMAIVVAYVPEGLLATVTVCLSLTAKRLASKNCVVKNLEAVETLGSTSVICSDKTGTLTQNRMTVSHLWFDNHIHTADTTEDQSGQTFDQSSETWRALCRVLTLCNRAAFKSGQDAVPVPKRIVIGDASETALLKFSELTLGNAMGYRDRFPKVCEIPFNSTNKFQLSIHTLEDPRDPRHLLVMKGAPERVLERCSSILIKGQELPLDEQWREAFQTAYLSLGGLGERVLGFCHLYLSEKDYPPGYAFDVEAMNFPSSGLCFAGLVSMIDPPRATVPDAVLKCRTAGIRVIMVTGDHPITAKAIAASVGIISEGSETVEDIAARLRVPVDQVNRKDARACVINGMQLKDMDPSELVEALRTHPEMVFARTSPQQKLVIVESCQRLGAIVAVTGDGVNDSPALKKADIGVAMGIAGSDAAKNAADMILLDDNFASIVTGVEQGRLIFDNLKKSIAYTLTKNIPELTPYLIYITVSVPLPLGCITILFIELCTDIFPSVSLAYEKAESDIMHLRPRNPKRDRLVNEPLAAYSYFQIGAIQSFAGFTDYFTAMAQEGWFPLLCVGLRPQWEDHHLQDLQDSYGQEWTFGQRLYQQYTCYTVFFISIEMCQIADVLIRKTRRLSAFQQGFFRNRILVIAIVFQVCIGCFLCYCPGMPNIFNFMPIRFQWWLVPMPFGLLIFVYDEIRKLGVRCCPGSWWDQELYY
T1 sequence (P18597 whole entry partner): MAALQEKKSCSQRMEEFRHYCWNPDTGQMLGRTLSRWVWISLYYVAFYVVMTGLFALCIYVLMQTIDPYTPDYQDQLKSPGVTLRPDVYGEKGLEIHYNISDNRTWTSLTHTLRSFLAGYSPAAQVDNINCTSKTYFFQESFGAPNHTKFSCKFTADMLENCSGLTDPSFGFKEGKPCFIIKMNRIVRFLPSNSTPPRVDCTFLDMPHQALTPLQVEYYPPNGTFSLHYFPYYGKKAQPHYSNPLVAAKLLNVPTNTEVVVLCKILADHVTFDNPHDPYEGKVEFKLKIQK

What is called IC50 is the midpoint of a concentration-inhibition curve. `CNc1nc2c(s1)CCc1c-2sc2nc(-c3ccccc3)cn12` [Example 2]: the 50% inhibitory concentration (IC50) on H^+ /K^+ ATPase came out at 21.6 µM.
For the compound `Br.Br.Nc1nc2c(s1)CCc1c-2sc2nc3ccccc3n12` [Example 13, 2-amino-4,5-dihydrobenzimidazo[2,1-b]thiazolo[5,4-g]benzothiazole dihydrobromide], the IC50 on H^+ /K^+ ATPase was 200 µM. In addition, the “Gastric juice Secretion Inhibition (percent)” value with Gastric Secretion (25 mg/kg, 4 hours) came out at 34.0%.
As usually defined, the ED50 is the dose that gives a 50% effect, or the effect in half of the subjects. As for `Nc1nc2c(s1)CCc1nc3ccccn3c1-2` [Example 17, 2-amino-4,5-dihydropyrido[1,2-a]thiazolo [5,4-g]benzimidazole], the IC50 at H^+ /K^+ ATPase was determined as 49 µM. Moreover, the ED50 in the assay on Gastric Secretion (4 hours after pylorus ligation, read-out: Gastric juice Secretion Inhibition (ED50)) is 15.4 mg/kg; in the assay on Ethanol-Induced Lesions, 2.91 mg/kg; in assay [2] it was 4.68 mg/kg; in the assay on Stress-Induced Ulcer, 17.6 mg/kg; with Mepirizole-Induced Ulcer, 18.7 mg/kg. For the same compound, in assay [1], the “Anti-ulcer activity, Acetic acid: Percentage of healing” value came out at 31.59%.
As for `NC(N)=Nc1nc2c(s1)-c1nc(N)sc1CC2` [Example 18], the IC50 at H^+ /K^+ ATPase was 100 µM.
In the case of `COc1ccc2[nH]c([S+]([O-])Cc3ncc(C)c(OC)c3C)nc2c1` (stereo not shown) [Omeprazole, reference compound], the 50% effective dose (ED50) in the assay with Ethanol-Induced Lesions is 17.1 mg/kg; in assay [2], 1.2 mg/kg; in the assay with Stress-Induced Ulcer, 4.4 mg/kg; in the assay on Mepirizole-Induced Ulcer, 2.8 mg/kg. The “Anti-ulcer activity, Acetic acid: Percentage of healing” value in assay [1] worked out at 27.1%.
